{"source": "patent US11938129B2", "about": "“Methods and compositions for the treatment of vascular disease” (THE GENERAL HOSPITAL CORPORATION, priority 2018, dated 2024)", "key": {"[1]": {"test_system": "TGF-β signaling", "test": "TGF-β activity by phosphorylation of Smad2 or Erk1 in aortas of treated mice", "type": "in vivo, mouse", "details": "aortic tissue of treated Fbn1C1039G/+ mice", "protocol": "(§1) Latex was injected into the left ventricular apex under low pressure until it was visible in the femoral artery. Animals were then fixed in Formalin (10%) for 24 hours before transfer to 70% ethanol for dissection and storage. Aortas were then removed from the animals or dissected in situ for photography prior to paraffinization and sectioning (10 pM). Slides were produced for tissue staining or stained with standard stains including H&E staining, collagen deposition (Trichrome Stain (Masson) Kit, Sigma, USA), elastin (Verhoeff-Van Gieson, Thermo Scientific, MI, USA) or F-actin (ActinGreen™ 488 ReadyProbes, ThermoFisher Scientific, USA) for quantitative analysis. Elastin integrity score was rated by blinded observers and graded on an arbitrary scale of 5 (indicating high quality elastic fiber) to 1 (indicating severe elastin fragmentation). For nuclear staining aortas from human and mice were cryosectioned using OCT standard protocol as described previously (Fischer et al., 2008). Cohorts of 8-week-old wild-type or Fbn1cw3gGi+ mice were treated with oral administration in drinking water of either Losartan or GSK343 for 20 weeks (FIG. 5). […] Then 200 mL of drinking water was supplemented with 250 pL of GSK343 stock solution. […] Aortic dimensions were monitored monthly by echocardiograms as mentioned above."}, "[2]": {"test_system": "aortic wall of Fbn1C1039G/+ mice", "test": "histologic analysis of aortas of treated Fbn1C1039G/+ mice", "type": "in vivo, mouse", "details": "aortas of Fbn1C1039G/+ mice treated from two to six months", "protocol": "Latex was injected into the left ventricular apex under low pressure until it was visible in the femoral artery. Animals were then fixed in Formalin (10%) for 24 hours before transfer to 70% ethanol for dissection and storage. Aortas were then removed from the animals or dissected in situ for photography prior to paraffinization and sectioning (10 pM). Slides were produced for tissue staining or stained with standard stains including H&E staining, collagen deposition (Trichrome Stain (Masson) Kit, Sigma, USA), elastin (Verhoeff-Van Gieson, Thermo Scientific, MI, USA) or F-actin (ActinGreen™ 488 ReadyProbes, ThermoFisher Scientific, USA) for quantitative analysis. Elastin integrity score was rated by blinded observers and graded on an arbitrary scale of 5 (indicating high quality elastic fiber) to 1 (indicating severe elastin fragmentation). For nuclear staining aortas from human and mice were cryosectioned using OCT standard protocol as described previously (Fischer et al., 2008). Cohorts of 8-week-old wild-type or Fbn1cw3gGi+ mice were treated with oral administration in drinking water of either Losartan or GSK343 for 20 weeks (FIG. 5). […] Then 200 mL of drinking water was supplemented with 250 pL of GSK343 stock solution. Control group for either drug treatment was given with equal volumes of sterile water. Bottles containing either losartan or GSKS343 were replaced with fresh water supplied with drugs every 3 days. For experiments described in FIG. 5A-5C, 16-week-old wild-type or Fbnicw3gGi+ mice were treated for 8 weeks and as described above. Additionally, a group of mice were given a combination of both losartan and GSK343 at the same concentrations as of other single drug treatments. Aortic dimensions were monitored monthly by echocardiograms as mentioned above."}, "[3]": {"test_system": "Hdac9", "test": "immunofluorescence of Hdac9 in ligated carotid", "type": "in vivo, mouse", "details": "arterial media and intima of carotid arteries", "protocol": "All mice used in this study were cared for under strict compliance with the Partners Institutional Animal Care and Use Committee (IACUC), regulated by the United States Public Health Service (USPHS). Carotid ligations were performed in 10 week old mice. Briefly, animals were anesthetized using intraperitoneal ketamine/xylazine (80 and 12 mg/kg, respectively) followed by a small incision in the neck to expose the carotid artery. Then the left carotid was ligated at the carotid bifurcation level using a 8-0 silk suture. At 21 days mice were sacrificed and carotids were collected for histological analysis. Approximately 98% of wild type mice developed stenotic lesions. Mice that developed thrombosis of the ligated carotid were excluded from the study (−1¬2%). Malatl knockout mice were kindly provided by Dr. David Spector (Cold Spring Harbor, N.Y.). Hdac9 flox/flox/Talgn-cre mice were generated as previously reported (10). […]\nLeft and right carotids were cryosectioned using OCT standard protocol and sectioning. […] Slides 1, 5, 10, and 15 were H&E stained for quantification of neointima. For quantification of the neointima, internal and external elastic lamina perimeters and medial thickness from 4 quadrants were measured and averaged using Image J software from the National Institutes of Health (NIH). […]"}, "[4]": {"test_system": "H3K27 methylation in HCC1806 cells", "details": "read-out: IC50 for inhibition of H3K27 methylation; cited from earlier work"}, "[5]": {"test_system": "H3K27me3", "test": "H3K27me3 staining in aortas of treated Fbn1C1039G/+ mice", "type": "in vivo, mouse", "details": "compared to control or losartan treated mice", "protocol": "as §1"}, "[6]": {"test_system": "a-SMA and SM22a", "test": "immunofluorescence of contractile proteins in ligated carotids", "type": "in vivo, mouse", "protocol": "All mice used in this study were cared for under strict compliance with the Partners Institutional Animal Care and Use Committee (IACUC), regulated by the United States Public Health Service (USPHS). Carotid ligations were performed in 10 week old mice. Briefly, animals were anesthetized using intraperitoneal ketamine/xylazine (80 and 12 mg/kg, respectively) followed by a small incision in the neck to expose the carotid artery. Then the left carotid was ligated at the carotid bifurcation level using a 8-0 silk suture. At 21 days mice were sacrificed and carotids were collected for histological analysis. Approximately 98% of wild type mice developed stenotic lesions. Mice that developed thrombosis of the ligated carotid were excluded from the study (−1¬2%). Malatl knockout mice were kindly provided by Dr. David Spector (Cold Spring Harbor, N.Y.). Hdac9 flox/flox/Talgn-cre mice were generated as previously reported (10). Ezh2 fl/fl/ (STOCK Ezh2tm2Sho/J) and Myh11-cre-GFP (B6.Cg-Tg(Myh11-cre,-EGFP)2Mik/J) were crossed to generate smooth muscle cell-Ezh2 deficient mice. All above mice and wild-type mice (C57BL/6J) were purchased from Jackson laboratory. For tissue analysis, animals were euthanized through inhalational isoflurane (Sigma, St, Louis, Mo.) prior to tissue collection. All carotid ligation (left carotid) procedures were performed at 10 weeks of age. All experiments were performed on male and female animals at a 1:1 ratio.\nLeft and right carotids were cryosectioned using OCT standard protocol and sectioning. The right carotid artery was unligated and served as an internal control. Neoinitima analysis was performed from hematoxylin and eosin (H & E) stained horizontal cross-sections embedded in Optimal Cutting Temperature compound (OCT). Briefly, the distal 0.2 mm of carotid from the ligation suture site were discarded followed by generation of 20 slides (10 pM). Slides 1, 5, 10, and 15 were H&E stained for quantification of neointima. For quantification of the neointima, internal and external elastic lamina perimeters and medial thickness from 4 quadrants were measured and averaged using Image J software from the National Institutes of Health (NIH). Slides 2-4, 6-9, and 11-14 were used for immunofluorescence staining.\nCohorts of 10-week-old wild-type mice were treated with oral administration in drinking water of GSK343 24 hrs before left carotid ligation and following treatment for 3 weeks. GSK343 inhibitor (25 mg) was dissolved in 1 mL of DMSO to obtain a stock solution of 46 mM. Then, 250 ml of drinking water was supplemented with 250 pl of GSK343 stock solution. Control group for was given with equal volumes of sterile water. Bottles containing GSK343 were replaced with fresh water supplied with drug every 3 days. […]"}, "[7]": {"biological_target": "EZH1 (Homo sapiens, UniProt Q92800)", "sequence (Q92800 whole entry, species assumed)": "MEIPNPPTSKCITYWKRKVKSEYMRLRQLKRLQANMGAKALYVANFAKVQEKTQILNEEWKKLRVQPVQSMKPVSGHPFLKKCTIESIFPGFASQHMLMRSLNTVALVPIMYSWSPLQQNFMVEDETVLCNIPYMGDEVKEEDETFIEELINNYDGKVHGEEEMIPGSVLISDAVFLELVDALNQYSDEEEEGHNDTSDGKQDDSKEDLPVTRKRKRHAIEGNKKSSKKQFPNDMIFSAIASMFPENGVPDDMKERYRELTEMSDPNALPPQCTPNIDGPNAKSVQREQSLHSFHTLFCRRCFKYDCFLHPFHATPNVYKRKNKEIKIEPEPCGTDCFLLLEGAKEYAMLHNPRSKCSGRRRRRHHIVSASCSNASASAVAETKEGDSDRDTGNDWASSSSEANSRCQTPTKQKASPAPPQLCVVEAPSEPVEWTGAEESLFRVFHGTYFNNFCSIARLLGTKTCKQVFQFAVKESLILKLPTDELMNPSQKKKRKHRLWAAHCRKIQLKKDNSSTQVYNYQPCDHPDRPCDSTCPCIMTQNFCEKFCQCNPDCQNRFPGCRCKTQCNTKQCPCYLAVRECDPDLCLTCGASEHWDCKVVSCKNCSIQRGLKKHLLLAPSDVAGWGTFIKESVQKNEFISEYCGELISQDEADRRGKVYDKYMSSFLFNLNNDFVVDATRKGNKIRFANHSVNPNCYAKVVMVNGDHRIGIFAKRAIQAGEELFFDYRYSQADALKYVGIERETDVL", "sequence (O75530 whole entry partner, species assumed)": "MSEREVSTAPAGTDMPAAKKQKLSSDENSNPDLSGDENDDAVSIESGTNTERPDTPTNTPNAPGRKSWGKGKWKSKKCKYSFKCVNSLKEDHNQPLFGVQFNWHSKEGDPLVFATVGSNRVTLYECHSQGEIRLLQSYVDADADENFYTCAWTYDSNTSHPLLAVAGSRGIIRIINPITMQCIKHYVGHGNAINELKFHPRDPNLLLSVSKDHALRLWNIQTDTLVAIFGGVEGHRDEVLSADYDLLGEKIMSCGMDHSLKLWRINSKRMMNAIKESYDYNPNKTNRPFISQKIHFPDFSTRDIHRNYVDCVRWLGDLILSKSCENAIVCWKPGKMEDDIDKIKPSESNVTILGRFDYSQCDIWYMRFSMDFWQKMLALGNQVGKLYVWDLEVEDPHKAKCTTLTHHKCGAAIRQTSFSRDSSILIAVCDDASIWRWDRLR", "sequence (Q15022 whole entry partner, species assumed)": "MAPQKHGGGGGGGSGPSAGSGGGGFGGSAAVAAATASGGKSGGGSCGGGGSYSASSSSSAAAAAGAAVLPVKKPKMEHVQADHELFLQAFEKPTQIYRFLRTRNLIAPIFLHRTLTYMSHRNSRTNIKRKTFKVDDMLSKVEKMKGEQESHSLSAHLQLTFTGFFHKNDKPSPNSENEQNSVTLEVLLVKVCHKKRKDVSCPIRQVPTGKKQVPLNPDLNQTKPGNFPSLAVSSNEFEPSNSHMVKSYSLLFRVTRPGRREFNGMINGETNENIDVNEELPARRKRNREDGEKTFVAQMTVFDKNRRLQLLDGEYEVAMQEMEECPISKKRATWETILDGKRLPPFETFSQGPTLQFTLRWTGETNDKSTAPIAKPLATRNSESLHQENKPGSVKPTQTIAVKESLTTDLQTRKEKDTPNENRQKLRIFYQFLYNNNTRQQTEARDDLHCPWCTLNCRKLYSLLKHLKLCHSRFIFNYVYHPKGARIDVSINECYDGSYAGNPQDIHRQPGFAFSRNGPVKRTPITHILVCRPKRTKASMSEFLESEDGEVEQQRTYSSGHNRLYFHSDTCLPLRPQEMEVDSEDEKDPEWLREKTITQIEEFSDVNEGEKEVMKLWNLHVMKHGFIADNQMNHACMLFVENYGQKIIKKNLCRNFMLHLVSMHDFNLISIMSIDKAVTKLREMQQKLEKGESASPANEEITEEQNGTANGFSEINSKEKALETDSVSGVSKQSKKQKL", "sequence (Q09028 whole entry partner, species assumed)": "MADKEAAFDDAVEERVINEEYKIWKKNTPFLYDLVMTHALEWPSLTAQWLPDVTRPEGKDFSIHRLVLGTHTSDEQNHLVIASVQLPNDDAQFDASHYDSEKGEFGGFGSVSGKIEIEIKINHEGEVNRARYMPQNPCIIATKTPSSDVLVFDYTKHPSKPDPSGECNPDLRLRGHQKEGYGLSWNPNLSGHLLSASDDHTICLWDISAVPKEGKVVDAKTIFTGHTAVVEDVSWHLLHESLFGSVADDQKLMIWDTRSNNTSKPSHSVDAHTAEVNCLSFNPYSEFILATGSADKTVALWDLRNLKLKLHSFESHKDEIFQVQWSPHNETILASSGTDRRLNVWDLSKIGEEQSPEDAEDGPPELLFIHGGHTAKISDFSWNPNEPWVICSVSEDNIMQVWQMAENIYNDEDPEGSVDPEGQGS", "sequence (Q6ZN18 whole entry partner, species assumed)": "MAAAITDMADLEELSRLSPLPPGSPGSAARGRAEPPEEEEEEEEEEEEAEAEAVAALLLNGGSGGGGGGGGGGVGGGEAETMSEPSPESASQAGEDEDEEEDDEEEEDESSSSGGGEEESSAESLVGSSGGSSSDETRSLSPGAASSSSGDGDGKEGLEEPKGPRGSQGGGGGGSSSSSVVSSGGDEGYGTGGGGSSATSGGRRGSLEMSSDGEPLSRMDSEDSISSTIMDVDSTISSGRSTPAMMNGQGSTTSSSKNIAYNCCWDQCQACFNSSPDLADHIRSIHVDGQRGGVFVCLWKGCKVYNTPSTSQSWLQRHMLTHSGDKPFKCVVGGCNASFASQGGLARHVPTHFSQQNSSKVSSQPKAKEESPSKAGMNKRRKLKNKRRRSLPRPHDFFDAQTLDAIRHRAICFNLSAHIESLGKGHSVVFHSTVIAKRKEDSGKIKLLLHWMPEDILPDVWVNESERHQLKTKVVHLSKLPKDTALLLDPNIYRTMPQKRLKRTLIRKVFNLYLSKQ", "details": "cited from earlier work"}, "[8]": {"test_system": "MMP2 and MMP9 activity", "test": "in vivo MMP activity (MMPSense 750 FAST) after carotid ligation", "set-up": "species or system mouse", "details": "24 h post injection, ligated mice", "protocol": "Mice were tail vein injected with 600 uL of MMPSense 750 FAST, a near-infrared fluorescence sensor for MMP2 and MMP9 activity, (PerkinElmer, USA). Mice were sacrificed 24 h post injection and aortas were dissected and analyzed using a Kodak image station 4000MM Pro for macroscopic fluorescence reflectance molecular imaging.\nCohorts of 10-week-old wild-type mice were treated with oral administration in drinking water of GSK343 24 hrs before left carotid ligation and following treatment for 3 weeks. GSK343 inhibitor (25 mg) was dissolved in 1 mL of DMSO to obtain a stock solution of 46 mM. Then, 250 ml of drinking water was supplemented with 250 pl of GSK343 stock solution. Control group for was given with equal volumes of sterile water. Bottles containing GSK343 were replaced with fresh water supplied with drug every 3 days. For Malatl antisense LNA treatments, cohorts of 10-week-old wild-type mice were injected with 15 nmol in saline solution 24 hrs before left carotid ligation following by a second injection 7 days post-ligation."}}, "note": "Entries after “also recorded” stand apart in the source; their conditions may differ.", "data": [{"smiles": "CCCc1cc(C)[nH]c(=O)c1CNC(=O)c1cc(-c2ccnc(N3CCN(C)CC3)c2)cc2c1cnn2C(C)C", "note": "[GSK343]", "values": [{"measurement": "TGF-β activity as assessed by phosphorylation of Smad2 or Erk1 protein", "setting": "[1]", "value": "did not suppress and not"}, {"measurement": "aortic architecture and filamentous actin content", "setting": "[2]", "value": "improvement"}, {"measurement": "elastin integrity", "setting": "[2]", "value": "not a significant improvement in elastin fiber integrity"}, {"measurement": "accumulation of Hdac9", "setting": "[3]", "value": "decreased accumulation"}, {"measurement": "IC50", "setting": "[4]", "value": "< 200", "unit": "nM"}, {"measurement": "H3K27me3 staining / aortic medial H3K27me3 modifications", "setting": "[5]", "value": "significant suppression of H3K27me3 staining; also recorded: significantly decreased"}, {"measurement": "expression of α-SMA in carotid VSMCs", "setting": "[6]; ligated carotid, in contrast to carotid VSMCs in wild type animals", "value": "robust expression"}, {"measurement": "expression of contractile proteins such as a-SMA and SM22a", "setting": "[6]; ligated carotids of treated mice", "value": "improved the expression of contractile proteins"}, {"measurement": "selectivity for EZH2 vs. EZH1", "setting": "[7]", "value": 60, "unit": "fold"}, {"measurement": "activity of MMPs", "setting": "[8]", "value": "Inhibition of Mmp activity; also recorded: inhibited the activity of MMPs"}]}]}
